# Assay results as given in US10874745B2, “Antimicrobial peptides and methods of treating gram-negative pathogens: polar and non-polar face analogs” (priority 2017, dated 2020).
# Several values for one entry are separate records, joined by “and”; a condition that tells them apart may be missing. Identical values can stand only once. Like-named read-outs stand apart in the source and are kept apart here. Non-standard residues stand in square brackets, D forms with d. Residues, ends and D or L forms follow the SMILES beside them. dDap = NC[C@@H](N)C(=O)O
# Experiments:
# Hemolytic activity = assay type: cell-based, human; settings: 1% human erythrocytes (red blood cells), pH 7.4
# Method: (§1) Hemoglobin release was determined spectrophotometrically at 570 nm. […] […] […] With the peptides used in this study the inventors used the HC30/MIC ratio value to calculate the therapeutic index.
# human red blood cells = assay: Hemolytic activity; assay type: cell-based; settings: for Hemolytic activity HC30: 18 h
# Method: as §1
# [1] = test system: A. baumannii clinical isolates; assay: MIC, microtiter dilution in Mueller Hinton medium; assay type: cell-based; settings: geometric mean, 7 clinical isolates of A. baumannii
# From the text: (§2) Gram-Negative Bacterial Strains used in this Study: All the A. baumannii strains used in this study were 1) obtained from the collection of Dr. Anthony A. Campagnari at the University of Buffalo and originally isolated from different patients and organs/tissues (strain 649, blood; strain 689, groin; strain 759, gluteus; strain 884, axilla; strain 985, pleural fluid); 2) were purchased from the American Type Culture Collection (ATCC, Manassas, Va., USA) (strain ATCC 17978, fatal meningitis; and strain ATCC 19606, urine); 3) obtained from MERCK (M89941, M89949, M89951, M89952, M89953, M89955 and M89963). These seven A. baumannii strains were resistant to polymyxin B and polymyxin E (Colistin).
# (§3) Measurement of Antimicrobial Activity (MIC): The minimal inhibitory concentration (MIC) is defined as the lowest peptide concentration that inhibited bacterial growth. MICs were measured by a standard microtiter dilution method in Mueller Hinton (MH) medium. Briefly, cells were grown overnight at 37° C. in MH broth and were diluted in the same medium. […] The plates were incubated at 37° C. for 24 h, and the MICs were determined.
# [2] = test system: A. baumannii strains resistant to Polymyxin B and Colistin; assay type: cell-based
# From the text: as §2, §3
# [3] = test system: clinical isolates of Pseudomonas aeruginosa; assay type: cell-based; settings: geometric mean, 6 clinical isolates of P. aeruginosa
# Method: as §3
# A. baumannii strain 649 = assay type: cell-based, Acinetobacter baumannii
# From the text: A critical component to the systemic use of AMPs to treat bacterial infections is the extent of AMP binding to serum proteins. In addition, since only the unbound AMP is available to interact with the therapeutic target, the extent of serum binding can have significant effects on efficacy. […] This assay estimates the in vivo bioavailability of the AMPs. […] An increase in MIC in serum is attributed to inhibition of antimicrobial activity due to serum protein binding.
SMILES,"MIC, 25% human serum (A. baumannii strain 649) [µM]","MIC, No serum (A. baumannii strain 649) [µM]",Hemolytic activity HC30 (human red blood cells) [µM],also measured
CC(=O)N[C@H](C)C(=O)N[C@H](CC(C)C)C(=O)N[C@H](CCCCN)C(=O)N[C@H](CCCCN)C(=O)N[C@H](CC(C)C)C(=O)N[C@H](CC(C)C)C(=O)N[C@H](CCCCN)C(=O)N[C@@H](C(=O)N[C@H](CC(C)C)C(=O)N[C@H](CO)C(=O)N[C@H](CCCCN)C(=O)N[C@H](C)C(=O)N[C@H](CCCNC(=N)N)C(=O)N[C@H](C)C(=O)N[C@H](C)C(=O)N[C@H](CCCNC(=N)N)C(=O)N[C@H](CC(C)C)C(=O)N[C@H](CCCCN)C(=O)N[C@@H](C(=O)N[C@H](CC(C)C)C(=O)N[C@H](CC(C)C)C(=O)N[C@H](CCCCN)C(=O)N[C@H](C)C(=O)N[C@H](CC(C)C)C(=O)N[C@H](CO)C(=O)N[C@H](CCCCN)C(N)=O)[C@H](C)O)[C@H](C)O [D41(Arg13/Arg16)],–,–,–,"HC50 at 18 h (Hemolytic activity; 50% hemolysis of human red blood cells after 18 hours at 37° C., read-out: HC50): 7.2 µM and 21 µg/mL; HC50 (human red blood cells; 50% hemolysis of human red blood cells after 18 hours at 37° C.): 7.2 µM; MICGM [1]: 0.6 µM; MICGM ([2]; geometric mean, 7 A. baumannii strains resistant to polymyxin B and colistin): 0.8 µM; MICGM [3]: 1.1 µM"
CC(=O)N[C@H](C)C(=O)N[C@H](CC(C)C)C(=O)N[C@H](CCCCN)C(=O)N[C@H](CO)C(=O)N[C@H](CC(C)C)C(=O)N[C@H](CC(C)C)C(=O)N[C@H](CCCCN)C(=O)N[C@@H](C(=O)N[C@H](CC(C)C)C(=O)N[C@H](CO)C(=O)N[C@H](CCCCN)C(=O)N[C@H](C)C(=O)N[C@H](CCCCN)C(=O)N[C@H](C)C(=O)N[C@H](C)C(=O)N[C@H](CCCCN)C(=O)N[C@H](CC(C)C)C(=O)N[C@H](CCCCN)C(=O)N[C@@H](C(=O)N[C@H](CC(C)C)C(=O)N[C@H](CC(C)C)C(=O)N[C@H](CCCCN)C(=O)N[C@H](C)C(=O)N[C@H](CC(C)C)C(=O)N[C@H](CO)C(=O)N[C@H](CCCCN)C(N)=O)[C@H](C)O)[C@H](C)O [Peptide D33],0.7,0.1,89,–
CC(=O)N[C@H](C)C(=O)N[C@H](CC(C)C)C(=O)N[C@H](CCCCN)C(=O)N[C@H](CO)C(=O)N[C@H](CC(C)C)C(=O)N[C@H](CC(C)C)C(=O)N[C@H](CCCCN)C(=O)N[C@@H](C(=O)N[C@H](CC(C)C)C(=O)N[C@H](CO)C(=O)N[C@H](C)C(=O)N[C@H](C)C(=O)N[C@H](CCCCN)C(=O)N[C@H](CCCCN)C(=O)N[C@H](CCCCN)C(=O)N[C@H](CCCCN)C(=O)N[C@H](CC(C)C)C(=O)N[C@H](C)C(=O)N[C@@H](C(=O)N[C@H](CC(C)C)C(=O)N[C@H](CC(C)C)C(=O)N[C@H](CCCCN)C(=O)N[C@H](C)C(=O)N[C@H](CC(C)C)C(=O)N[C@H](CO)C(=O)N[C@H](CCCCN)C(N)=O)[C@H](C)O)[C@H](C)O [Peptide D34],1.4,0.2,126,–
CC(=O)N[C@H](C)C(=O)N[C@H](CC(C)C)C(=O)N[C@H](CCCCN)C(=O)N[C@H](CO)C(=O)N[C@H](CC(C)C)C(=O)N[C@H](CC(C)C)C(=O)N[C@H](C)C(=O)N[C@@H](C(=O)N[C@H](CC(C)C)C(=O)N[C@H](CO)C(=O)N[C@H](CCCCN)C(=O)N[C@H](C)C(=O)N[C@H](CCCCN)C(=O)N[C@H](CCCCN)C(=O)N[C@H](CCCCN)C(=O)N[C@H](CCCCN)C(=O)N[C@H](CC(C)C)C(=O)N[C@H](CCCCN)C(=O)N[C@@H](C(=O)N[C@H](CC(C)C)C(=O)N[C@H](CC(C)C)C(=O)N[C@H](C)C(=O)N[C@H](C)C(=O)N[C@H](CC(C)C)C(=O)N[C@H](CO)C(=O)N[C@H](CCCCN)C(N)=O)[C@H](C)O)[C@H](C)O [Peptide D35],1.4,0.4,30,–
CC(=O)N[C@H](C)C(=O)N[C@H](CC(C)C)C(=O)N[C@H](C)C(=O)N[C@H](CO)C(=O)N[C@H](CC(C)C)C(=O)N[C@H](CC(C)C)C(=O)N[C@H](CCCCN)C(=O)N[C@@H](C(=O)N[C@H](CC(C)C)C(=O)N[C@H](CO)C(=O)N[C@H](CCCCN)C(=O)N[C@H](C)C(=O)N[C@H](CCCCN)C(=O)N[C@H](CCCCN)C(=O)N[C@H](CCCCN)C(=O)N[C@H](CCCCN)C(=O)N[C@H](CC(C)C)C(=O)N[C@H](CCCCN)C(=O)N[C@@H](C(=O)N[C@H](CC(C)C)C(=O)N[C@H](CC(C)C)C(=O)N[C@H](CCCCN)C(=O)N[C@H](C)C(=O)N[C@H](CC(C)C)C(=O)N[C@H](CO)C(=O)N[C@H](C)C(N)=O)[C@H](C)O)[C@H](C)O [Peptide D36],0.7,0.4,61,–
CC(=O)N[C@H](C)C(=O)N[C@H](CC(C)C)C(=O)N[C@H](CCCCN)C(=O)N[C@H](CO)C(=O)N[C@H](CC(C)C)C(=O)N[C@H](CC(C)C)C(=O)N[C@H](CCCCN)C(=O)N[C@@H](C(=O)N[C@H](CC(C)C)C(=O)N[C@H](CO)C(=O)N[C@H](CCCCN)C(=O)N[C@H](C)C(=O)N[C@H](C)C(=O)N[C@H](C)C(=O)N[C@H](C)C(=O)N[C@H](C)C(=O)N[C@H](CC(C)C)C(=O)N[C@H](CCCCN)C(=O)N[C@@H](C(=O)N[C@H](CC(C)C)C(=O)N[C@H](CC(C)C)C(=O)N[C@H](CCCCN)C(=O)N[C@H](C)C(=O)N[C@H](CC(C)C)C(=O)N[C@H](CO)C(=O)N[C@H](CCCCN)C(N)=O)[C@H](C)O)[C@H](C)O [Peptide D37],>92.8,2.9,2.6,–
CC(=O)N[C@H](C)C(=O)N[C@H](CC(C)C)C(=O)N[C@H](CCCCN)C(=O)N[C@H](CO)C(=O)N[C@H](CC(C)C)C(=O)N[C@H](CC(C)C)C(=O)N[C@H](CCCCN)C(=O)N[C@@H](C(=O)N[C@H](CC(C)C)C(=O)N[C@H](CO)C(=O)N[C@H](C)C(=O)N[C@H](C)C(=O)N[C@H](C)C(=O)N[C@H](CCCCN)C(=O)N[C@H](CCCCN)C(=O)N[C@H](C)C(=O)N[C@H](CC(C)C)C(=O)N[C@H](C)C(=O)N[C@@H](C(=O)N[C@H](CC(C)C)C(=O)N[C@H](CC(C)C)C(=O)N[C@H](CCCCN)C(=O)N[C@H](C)C(=O)N[C@H](CC(C)C)C(=O)N[C@H](CO)C(=O)N[C@H](CCCCN)C(N)=O)[C@H](C)O)[C@H](C)O [Peptide D38],>92.8,0.7,2.8,–
CC(=O)N[C@H](C)C(=O)N[C@H](CC(C)C)C(=O)N[C@H](CCCCN)C(=O)N[C@H](CO)C(=O)N[C@H](CC(C)C)C(=O)N[C@H](CC(C)C)C(=O)N[C@H](C)C(=O)N[C@@H](C(=O)N[C@H](CC(C)C)C(=O)N[C@H](CO)C(=O)N[C@H](CCCCN)C(=O)N[C@H](C)C(=O)N[C@H](C)C(=O)N[C@H](CCCCN)C(=O)N[C@H](CCCCN)C(=O)N[C@H](C)C(=O)N[C@H](CC(C)C)C(=O)N[C@H](CCCCN)C(=O)N[C@@H](C(=O)N[C@H](CC(C)C)C(=O)N[C@H](CC(C)C)C(=O)N[C@H](C)C(=O)N[C@H](C)C(=O)N[C@H](CC(C)C)C(=O)N[C@H](CO)C(=O)N[C@H](CCCCN)C(N)=O)[C@H](C)O)[C@H](C)O [Peptide D39],>92.8,1.4,2.8,–
CC(=O)N[C@H](C)C(=O)N[C@H](CC(C)C)C(=O)N[C@H](C)C(=O)N[C@H](CO)C(=O)N[C@H](CC(C)C)C(=O)N[C@H](CC(C)C)C(=O)N[C@H](CCCCN)C(=O)N[C@@H](C(=O)N[C@H](CC(C)C)C(=O)N[C@H](CO)C(=O)N[C@H](CCCCN)C(=O)N[C@H](C)C(=O)N[C@H](C)C(=O)N[C@H](CCCCN)C(=O)N[C@H](CCCCN)C(=O)N[C@H](C)C(=O)N[C@H](CC(C)C)C(=O)N[C@H](CCCCN)C(=O)N[C@@H](C(=O)N[C@H](CC(C)C)C(=O)N[C@H](CC(C)C)C(=O)N[C@H](CCCCN)C(=O)N[C@H](C)C(=O)N[C@H](CC(C)C)C(=O)N[C@H](CO)C(=O)N[C@H](C)C(N)=O)[C@H](C)O)[C@H](C)O [Peptide D40],>92.8,2.9,2.8,–
"CC(=O)N[C@H](CCCCN)C(=O)N[C@H](CC(C)C)C(=O)N[C@H](CN)C(=O)N[C@H](CO)C(=O)N[C@H](CC(C)C)C(=O)N[C@H](CC(C)C)C(=O)N[C@H](CN)C(=O)N[C@@H](C(=O)N[C@H](CC(C)C)C(=O)N[C@H](CO)C(=O)N[C@H](C)C(=O)N[C@H](C)C(=O)N[C@H](CCCCN)C(=O)N[C@H](CN)C(=O)N[C@H](CN)C(=O)N[C@H](CCCCN)C(=O)N[C@H](CC(C)C)C(=O)N[C@H](C)C(=O)N[C@@H](C(=O)N[C@H](CC(C)C)C(=O)N[C@H](CC(C)C)C(=O)N[C@H](CN)C(=O)N[C@H](C)C(=O)N[C@H](CC(C)C)C(=O)N[C@H](CO)C(=O)N[C@H](CN)C(N)=O)[C@H](C)O)[C@H](C)O [Peptide D106, Ac-KL(Dpr)SLL(Dpr)TLSAAK(Dpr)(Dpr)KLATLL(Dpr)ALs(Dpr)-amide] (Ac-[dK][dL][dDap][dS][dL][dL][dDap][dT][dL][dS][dA][dA][dK][dDap][dDap][dK][dL][dA][dT][dL][dL][dDap][dA][dL][dS][dDap]-NH2)",–,–,–,HC50 at 18 h (Hemolytic activity; human): 889 µg/mL and 340 µM; HC50 (human red blood cells): 340.2 µM; MIC ([2]; strain MB9941 (Table 9C)): 0.8 µM; MIC ([2]; strain MB9949 (Table 9C)): 0.8 µM; MIC ([2]; strain MB9951 (Table 9C)): 1.5 µM; MIC ([2]; strain MB9952 (Table 9C)): 0.8 µM; MIC ([2]; strain MB9953 (Table 9C)): 0.8 µM; MIC ([2]; strain MB9955 (Table 9C)): 0.4 µM; MIC ([2]; strain MB9963 (Table 9C)): 0.8 µM
